According to patent US8512965B2, “Methods of identifying ligands to sour-taste receptors comprising PKD1L3 and PKDPKD2L1” (Duke University, priority 2006, dated 2013):

Assays:
[1] = target: T1, PKD1L3/PKD2L1 (Mus musculus, UniProt A2A259+Q2EG98, I1053S/I114V/I482V/L203V/Q202H/Y438D); experiment: Calcium imaging (fluo-4/fura-red) of HEK293T cells transiently co-expressing PKD1L3 and PKD2L1; assay type: cell-based, murine; conditions: for calcium response upon stimulation: pH 2.6
T1 construct: HA (N); expressed in transfected cells; host or cells: HEK293T

[2] = at the same pH (Ganzevles and Kroeze, 1987; Makhlouf and Bum, 1972); cited from earlier work
[3] = tested on: either PKD1L3 or PKD2L1, or neither of them; experiment: Calcium imaging of HEK293T cells expressing PKD1L3 or PKD2L1 alone, or neither; assay type: cell-based, murine; conditions: treated with citric acid
[4] = tested on: taste cells; conditions: cited from earlier work
[5] = cells expressing both PKD1L3 and PKD2L1, citric acid 25 mM, hydrochloric acid at the same pH

T1 sequence (Q2EG98 21-2151 I1053S): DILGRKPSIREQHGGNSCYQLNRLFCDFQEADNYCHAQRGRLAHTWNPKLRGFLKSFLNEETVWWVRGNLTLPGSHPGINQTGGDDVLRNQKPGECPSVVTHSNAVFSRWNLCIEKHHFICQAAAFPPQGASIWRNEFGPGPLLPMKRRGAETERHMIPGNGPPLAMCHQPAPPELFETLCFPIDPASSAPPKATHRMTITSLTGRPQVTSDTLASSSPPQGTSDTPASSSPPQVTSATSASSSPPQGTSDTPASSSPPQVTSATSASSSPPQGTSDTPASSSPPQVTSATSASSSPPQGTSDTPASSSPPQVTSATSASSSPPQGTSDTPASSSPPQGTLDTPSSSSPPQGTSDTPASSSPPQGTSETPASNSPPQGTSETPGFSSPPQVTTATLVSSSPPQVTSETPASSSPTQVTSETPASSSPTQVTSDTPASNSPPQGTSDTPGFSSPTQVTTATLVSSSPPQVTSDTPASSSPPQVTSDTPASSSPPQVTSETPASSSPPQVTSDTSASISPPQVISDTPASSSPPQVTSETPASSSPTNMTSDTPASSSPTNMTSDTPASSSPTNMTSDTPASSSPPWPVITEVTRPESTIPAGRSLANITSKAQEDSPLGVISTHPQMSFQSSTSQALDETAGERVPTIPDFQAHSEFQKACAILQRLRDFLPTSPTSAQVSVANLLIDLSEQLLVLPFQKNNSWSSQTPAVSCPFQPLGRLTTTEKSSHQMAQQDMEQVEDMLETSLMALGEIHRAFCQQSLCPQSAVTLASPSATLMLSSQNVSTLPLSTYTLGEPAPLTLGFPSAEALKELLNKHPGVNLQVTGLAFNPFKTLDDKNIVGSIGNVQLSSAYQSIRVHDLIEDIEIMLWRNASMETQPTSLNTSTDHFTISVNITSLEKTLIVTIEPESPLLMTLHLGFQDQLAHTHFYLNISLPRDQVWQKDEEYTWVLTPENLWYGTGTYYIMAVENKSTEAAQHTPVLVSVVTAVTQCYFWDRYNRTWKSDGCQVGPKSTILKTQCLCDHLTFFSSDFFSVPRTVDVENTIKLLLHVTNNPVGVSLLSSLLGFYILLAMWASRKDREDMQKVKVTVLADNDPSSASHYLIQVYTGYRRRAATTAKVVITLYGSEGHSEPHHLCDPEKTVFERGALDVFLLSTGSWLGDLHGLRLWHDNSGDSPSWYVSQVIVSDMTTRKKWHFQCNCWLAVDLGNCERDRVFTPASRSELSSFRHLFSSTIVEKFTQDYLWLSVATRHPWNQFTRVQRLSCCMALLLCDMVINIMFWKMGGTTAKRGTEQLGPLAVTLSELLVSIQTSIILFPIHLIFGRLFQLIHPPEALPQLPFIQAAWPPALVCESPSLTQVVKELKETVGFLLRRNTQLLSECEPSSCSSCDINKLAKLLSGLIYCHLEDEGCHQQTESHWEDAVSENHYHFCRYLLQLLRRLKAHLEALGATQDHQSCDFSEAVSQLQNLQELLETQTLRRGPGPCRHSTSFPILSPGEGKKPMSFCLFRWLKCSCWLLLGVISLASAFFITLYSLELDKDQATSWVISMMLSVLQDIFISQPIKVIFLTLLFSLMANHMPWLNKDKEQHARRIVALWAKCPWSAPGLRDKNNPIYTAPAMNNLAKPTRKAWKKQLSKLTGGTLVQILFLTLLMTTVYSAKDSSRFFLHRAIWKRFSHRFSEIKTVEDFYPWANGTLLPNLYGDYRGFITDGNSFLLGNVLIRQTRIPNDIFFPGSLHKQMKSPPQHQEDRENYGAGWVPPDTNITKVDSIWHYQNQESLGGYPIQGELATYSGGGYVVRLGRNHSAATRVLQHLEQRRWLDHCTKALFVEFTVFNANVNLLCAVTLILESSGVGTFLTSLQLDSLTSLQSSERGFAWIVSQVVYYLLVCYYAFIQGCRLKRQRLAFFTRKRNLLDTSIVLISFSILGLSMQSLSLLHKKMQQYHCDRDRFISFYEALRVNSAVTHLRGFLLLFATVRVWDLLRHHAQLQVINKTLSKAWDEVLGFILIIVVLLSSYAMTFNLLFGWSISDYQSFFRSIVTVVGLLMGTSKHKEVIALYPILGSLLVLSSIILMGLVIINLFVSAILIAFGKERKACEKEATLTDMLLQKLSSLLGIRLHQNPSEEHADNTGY
T1 sequence (A2A259 whole entry I114V/Q202H/L203V/Y438D/I482V): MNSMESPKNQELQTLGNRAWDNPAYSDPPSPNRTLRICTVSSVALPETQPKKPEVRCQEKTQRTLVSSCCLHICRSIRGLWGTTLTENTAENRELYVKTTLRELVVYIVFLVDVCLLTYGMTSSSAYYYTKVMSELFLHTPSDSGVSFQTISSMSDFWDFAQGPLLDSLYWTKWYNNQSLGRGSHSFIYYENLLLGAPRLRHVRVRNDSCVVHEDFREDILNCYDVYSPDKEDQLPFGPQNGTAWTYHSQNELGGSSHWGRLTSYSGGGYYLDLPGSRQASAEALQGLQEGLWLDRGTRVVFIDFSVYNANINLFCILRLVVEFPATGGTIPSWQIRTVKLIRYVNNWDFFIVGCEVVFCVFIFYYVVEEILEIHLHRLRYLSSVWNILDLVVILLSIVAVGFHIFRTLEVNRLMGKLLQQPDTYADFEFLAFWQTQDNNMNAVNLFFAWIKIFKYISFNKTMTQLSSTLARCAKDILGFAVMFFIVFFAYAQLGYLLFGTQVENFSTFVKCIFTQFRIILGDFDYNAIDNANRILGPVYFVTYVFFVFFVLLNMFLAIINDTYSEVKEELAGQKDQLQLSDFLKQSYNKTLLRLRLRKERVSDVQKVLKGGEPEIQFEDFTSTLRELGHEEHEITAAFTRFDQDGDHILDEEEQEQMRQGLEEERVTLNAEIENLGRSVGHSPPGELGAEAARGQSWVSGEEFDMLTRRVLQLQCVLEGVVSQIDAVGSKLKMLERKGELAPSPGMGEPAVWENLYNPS

In the case of `N=C(N)NC(=O)c1nc(Cl)c(N)nc1N` [amiloride], the “inhibition of function of the two protein heteromer” value ([1]; ASIC inhibitor / HCN inhibitor applied) is reported as “not inhibited”.
In the case of `CC(=O)O` [acetic acid], the “sour taste relative to hydrochloric acid” value [2] is listed as “more sour than hydrochloric acid”.
For `OC[C@H]1O[C@@](CO)(O[C@H]2O[C@H](CO)[C@@H](O)[C@H](O)[C@H]2O)[C@@H](O)[C@@H]1O` [sucrose], the “calcium response upon stimulation” value [1, 5] was “did not respond”.
In the case of `Cl` [hydrochloric acid], the “calcium response upon stimulation” value [1] is reported as “much less of a calcium response”.
With `O=C1NS(=O)(=O)c2ccccc21` [saccharin] the “calcium response upon stimulation” value [1, 5] was “did not respond”.
In the case of `[Cl-].[Na+]` [NaCl], the “calcium response upon stimulation” value [1] is reported as “did not respond”.
For `C[C@@H]1C[C@@H]([C@H](O)CC2CC(=O)NC(=O)C2)C(=O)[C@@H](C)C1` [cyclohexamide], the “calcium response upon stimulation” value [1] was “did not respond”.
In the case of `C=C[C@H]1C[N@@]2CC[C@H]1C[C@H]2[C@H](O)c1ccnc2ccc(OC)cc12` [quinine], the “calcium response upon stimulation” value [1, 5] is reported as “did not respond”.
With `O=C(O)CC(O)(CC(=O)O)C(=O)O` [citric acid] the “potency in activating PKD1L3/PKD2L1 heteromers relative to hydrochloric acid” value ([1]; at the same pH) was “more potent than hydrochloric acid”, the “calcium response upon stimulation” value [1, 5] was “responded” and the “calcium response with extracellular calcium ions eliminated from the bath solution” value ([1]; cells expressing both proteins, no extracellular calcium) was “abolished”. For the same compound, the “sour taste relative to hydrochloric acid” value [2] was “more sour than hydrochloric acid”, the “calcium response upon stimulation” value [3] was “little or no calcium response” and the taste cells activated ([4]; calcium imaging of taste bud slices (Caicedo et al., 2002; Richter et al., 2003)) was 23-25%. For the same compound, the “potency as sour ligand relative to hydrochloric acid” value ([4]; mouse taste tissue slices, same pH (Richter et al., 2003)) was “more potent sour ligand than hydrochloric acid”.
